# Data published in patent US12404270B2, “Quinazoline derivatives as LPA receptor 2 inhibitors” (CHIESI FARMACEUTICI S.P.A., priority 2019, dated 2025).
# Read-outs that look alike come from different tables or passages of the source.
# Molecular target: T1, human recombinant LPA2 expressed in CHO cells (Homo sapiens, UniProt Q9HBW0)
# T1 construct: expressed in transfected cells; host or cells: CHO (CHO-hLPA2 cell line)
# Assay: FLIPR calcium mobilization assay, LPA2 antagonism in CHO-hLPA2 cells
# Format: cell-based
# Experimental: The effectiveness of compounds of the present invention as LPA2 antagonist can be determined at the human recombinant LPA2 expressed in CHO cells, using a FLIPR assay in 384 well format.
# CHO-hLPA2 cell lines are cultured in a humidified incubator at 5% CO2 in DMEM/F-12 (1:1) MIXTURE with 2 mM Glutamax, supplemented with 10% of Foetal Bovine Serum, 1 mM Sodium Pyruvate, 11 mM Hepes and 1× Penicillin/Streptomycin. CHO hLPA2 cells are seeded into black walled clear-bottom 384-well plates (#781091, Greiner Bio-One GmbH) at a density of 7,500 cells per well in 50 μl culture media and grown overnight in a 37° C. humidified CO2-incubator. Serial dilutions (1:3 or 1:4, 11 points CRC) of compounds are performed in 100% DMSO at 200× the final concentration. The compounds are diluted 1:50 prior to the experiment with Assay Buffer (20 mM HEPES, 145 mM NaCl, 5 mM KCl, 5.5 mM glucose, 1 mM MgCl2 and 2 mM CaCl2, pH 7.4 containing 0.01% Pluronic F-127) to obtain a solution corresponding to […] the final concentration in the assay (4×, 2% DMSO). The final concentration of DMSO in the assay will be 0.5% in each well. Medium is removed by aspiration and cells are then incubated with 30 μl of a loading solution containing 5 μM of the cytoplasmic Ca2+ indicator Cal-520 AM in Assay Buffer containing 2.5 mM probenecid for 30 min at 37° C. incubator (cell loading). The loaded cell plates are transferred into the FLIPR instrument and calcium responses are monitored during the on-line addition protocols. For testing of compounds, after the cell loading, 10 μl/well of 4× antagonists' solution was added onto the cells. […] Intracellular peak fluorescence values subtracted by baseline fluorescence are exported and analysed to determine IC50 values, respectively. The calcium response is expressed as percentage of the maximal inhibition of the EC80 agonist response.
# The raw data (peak height expressed as relative fluorescence units) are normalized and transformed into “percent of inhibition”. Curve fitting and pIC50 (−Log IC50) estimations are carried out using a four-parameter logistic model using XLfit Software.
# [1] = CHO-hLPA2 cells, inhibition of LPA EC80 Ca2+ response, 30 min pre-incubation, read-out: LPA2 IC50
# T1 sequence (Q9HBW0 whole entry): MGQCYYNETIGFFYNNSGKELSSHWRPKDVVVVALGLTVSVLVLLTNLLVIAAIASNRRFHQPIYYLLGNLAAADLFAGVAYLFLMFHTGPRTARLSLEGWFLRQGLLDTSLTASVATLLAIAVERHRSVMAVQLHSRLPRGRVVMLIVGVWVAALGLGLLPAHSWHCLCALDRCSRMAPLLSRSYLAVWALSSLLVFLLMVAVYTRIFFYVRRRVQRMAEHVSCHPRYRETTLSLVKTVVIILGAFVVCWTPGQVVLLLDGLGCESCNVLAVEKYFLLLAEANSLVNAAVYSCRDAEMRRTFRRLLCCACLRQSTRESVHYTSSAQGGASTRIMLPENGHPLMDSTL
SMILES,IC50 [1],"IC50 (same in vitro assay as Table 2, read-out: IC50 on LPA2 receptor)"
"Cc1cc(-c2ccc(S(=O)(=O)N3CCN(C[C@H](C)Nc4ncnc5c(N(C)C)cccc45)CC3)s2)on1 [Example 96, N8,N8-dimethyl-N4-[(2S)-1-(4-{[5-(3-methyl-1,2-oxazol-5-yl)thiophen-2-yl]sulfonyl}piperazin-1-yl)propan-2-yl]quinazoline-4,8-diamine]",< 0.01 µM,
"COC(=O)Nc1nc(C)c(S(=O)(=O)N2CCN(C[C@H](C)Nc3ncnc4c(Br)cccc34)CC2)s1 [Example 101, methyl N-[5-({4-[(2S)-2-[(8-bromoquinazolin-4-yl)amino]propyl]piperazin-1-yl}sulfonyl)-4-methyl-1,3-thiazol-2-yl]carbamate]",0.01 to 0.1 µM,
"COC(=O)Nc1nc(C)c(S(=O)(=O)N2CCN(C[C@H](C)Nc3ncnc4ncccc34)CC2)s1 [comparative Example A, Methyl (S)-(4-methyl-5-((4-(2-(pyrido[2,3-d]pyrimidin-4 ylamino)propyl)piperazin-1-yl)sulfonyl)thiazol-2-yl)carbamate, reference compound]",,> 3 µM
